The results in this text go back to the RepoRT retention time repository.

Each structure is given as a SMILES string.

The nature of this data set: HILIC, Waters ACQUITY UPLC BEH Amide, 100 × 2.1 mm, 1.7 µm; A: water + 0.125% formic acid + 10 mM ammonium formate; B: 5% water + 95% acetonitrile + 0.125% formic acid + 10 mM ammonium formate; gradient (min/%B) 0/100 2/100 7.7/70 9.5/40 10.25/30 12.75/100 17/100. Particulars: stereoisomer not certain.

Turning to `O=c1cnn(C2OC(CO)C(O)C2O)c(=O)[nH]1` (stereo unspecified) [6-Azuridine], the LC retention time stood at 4.31 min.

Consider `O=C(O)CCCCCO` [6-Hydroxycaproic acid], for which the LC retention time worked out at 1.34 min.

With `O=c1cc(-c2ccccc2)oc2ccc(O)cc12` [6-Hydroxyflavone], the LC retention time stood at 1.26 min.

With `CC(C)=CCCC(C)O` (stereo unspecified) [6-Methyl-5-hepten-2-ol], the LC retention time was 7.3 min.

With `CNc1ncnc2c1ncn2C1OC(CO)C(O)C1O` (stereo unspecified) [6-Methyladenosine], the LC retention time turned out to be 3.56 min.

With `CSc1ncnc2nc[nH]c12` [6-Methylmercaptopurine], the LC retention time is 1.49 min.

With `CC(O)C(O)C1=Nc2c(nc(N)[nH]c2=O)NC1` (stereo unspecified) [7,8-Dihydrobiopterin], the LC retention time amounted to 7.18 min.

Take `Cn1c[n+](C2OC(CO)C(O)C2O)c2nc(N)[nH]c(=O)c21` (stereo unspecified) [7-Methylguanosine]: the LC retention time was 7.34 min.

In the case of `O=[N+]([O-])c1cccc2cn[nH]c12` [7-Nitroindazole], the LC retention time is 1.03 min.

Regarding `Nc1ncnc2c1[nH]c(=O)n2C1CC(O)C(CO)O1` (stereo unspecified) [8-Oxo-2-deoxyadenosine], the LC retention time amounted to 5.11 min.

On to `CC12CCC3c4ccc(O)cc4CCC3C1CC(OC1OC(C(=O)O)C(O)C(O)C1O)C2O` (stereo unspecified) [16-Glucuronide-estriol], for which the LC retention time was determined as 6.49 min.

Take `O=C(O)CC1C(=O)Nc2ccccc21` (stereo unspecified) [(2-oxo-2,3-dihydro-1H-indol-3-yl)acetic acid]: the LC retention time worked out at 2.02 min.

As for `CCCC(=O)OC(CC(=O)[O-])C[N+](C)(C)C` [(R)-Butyrylcarnitine], the LC retention time was 5.77 min.

Regarding `CN1C(=O)CCC1c1ccc[n+]([O-])c1` [(S)-Cotinine N-oxide], the LC retention time stood at 3.87 min.

Consider `CN(C)C(N)=NCCCC(N)C(=O)O` (stereo unspecified) [ADMA], for which the LC retention time worked out at 8.55 min.

`CCCCCC=CCC=CCC=CCC=CCCCC(=O)Nc1ccc(O)cc1` [AM 404]: the LC retention time stood at 0.97 min.

Consider `CC(C)C1=CC2=CCC3C(C)(C(=O)O)CCCC3(C)C2CC1` (stereo unspecified) [Abietic acid], for which the LC retention time turned out to be 1.11 min.

`CC(C=CC1(O)C(C)=CC(=O)CC1(C)C)=CC(=O)O` (stereo unspecified) [Abscisic acid]: the LC retention time worked out at 1.33 min.

In the case of `CC1OC(OC2C(CO)OC(OC3C(CO)OC(O)C(O)C3O)C(O)C2O)C(O)C(O)C1NC1C=C(CO)C(O)C(O)C1O` (stereo unspecified) [Acarbose], the LC retention time was found to be 9.88 min.

For the compound `CC(=O)Nc1ccc(OC2OC(C(=O)O)C(O)C(O)C2O)cc1` (stereo unspecified) [Acetaminophen glucuronide], the LC retention time turned out to be 7.73 min.

Consider `CC(=O)Nc1ccc(O)cc1` [Acetaminophen], for which the LC retention time stood at 1.37 min.

Take `CC(=O)Nc1ccccc1` [Acetanilide]: the LC retention time was determined as 1.11 min.

`CC(=O)NO` [Acetohydroxamic acid]: the LC retention time stood at 2.94 min.

As for `CC(=O)OC(CC(=O)[O-])C[N+](C)(C)C` (stereo unspecified) [Acetylcarnitine], the LC retention time was 7.19 min.

For the compound `CC(=O)N1C(=O)C(=O)c2ccccc21` [Acetylisatin], the LC retention time worked out at 2.4 min.

Turning to `Cc1c2oc3c(C)ccc(C(=O)NC4C(=O)NC(C(C)C)C(=O)N5CCCC5C(=O)N(C)CC(=O)N(C)C(C(C)C)C(=O)OC4C)c3nc-2c(C(=O)NC2C(=O)NC(C(C)C)C(=O)N3CCCC3C(=O)N(C)CC(=O)N(C)C(C(C)C)C(=O)OC2C)c(N)c1=O` (stereo unspecified) [Actinomycin D], the LC retention time is 1.03 min.

Turning to `CC(=O)Nc1ccc(CC(=O)O)cc1` [Actrarit], the LC retention time turned out to be 1.58 min.

In the case of `Nc1ncnc2nc[nH]c12` [Adenine], the LC retention time worked out at 4.71 min.

For `Nc1ncnc2c1ncn2C1OC2COP(=O)(O)OC2C1O` (stereo unspecified) [Adenosine 3',5'-cyclic monophosphate], the LC retention time turned out to be 7.62 min.

As to `Nc1ncnc2c1ncn2C1OC(COP(=O)(O)O)C(O)C1O` (stereo unspecified) [Adenosine 5'-monophosphate], the LC retention time was determined as 8.88 min.

In the case of `Nc1ncnc2c1ncn2C1OC(CO)C(OP(=O)(O)O)C1O` (stereo unspecified) [Adenosine-3-monophosphate], the LC retention time amounted to 8.88 min.

Consider `Nc1ncnc2c1ncn2C1OC(CO)C(O)C1O` (stereo unspecified) [Adenosine], for which the LC retention time came out at 4.77 min.

As for `CC12CC(=O)C3C(CCC4=CC(=O)CCC43C)C1CCC2=O` (stereo unspecified) [Adrenosterone], the LC retention time came to 1.1 min.

With `NCCCCN=C(N)N` [Agmatine], the LC retention time worked out at 8.92 min.

As for `CC(N)C(=O)NC(C)C(=O)O` (stereo unspecified) [Ala-Ala], the LC retention time worked out at 8.41 min.

For `CC(N)C(=O)NC(CCC(N)=O)C(=O)O` (stereo unspecified) [Ala-Gln], the LC retention time amounted to 9.11 min.

Regarding `CCC(C)C(NC(=O)C(C)N)C(=O)O` (stereo unspecified) [Ala-Ile], the LC retention time is 7.83 min.

Turning to `CC(C)CC(NC(=O)C(C)N)C(=O)O` (stereo unspecified) [Ala-Leu], the LC retention time came out at 7.6 min.

As for `CC(N)C(=O)NC(C(=O)O)C(C)C` (stereo unspecified) [Ala-Val], the LC retention time is 7.66 min.

Regarding `CC(N)C(=O)O` (stereo unspecified) [Alanine], the LC retention time was 8.05 min.

With `CCCSc1ccc2nc(NC(=O)OC)[nH]c2c1` [Albendazole], the LC retention time amounted to 1.22 min.

In the case of `CC(C)(C)NCC(O)c1ccc(O)c(CO)c1` (stereo unspecified) [Albuterol], the LC retention time is 5.55 min.

As for `COc1cc2nc(N(C)CCCNC(=O)C3CCCO3)nc(N)c2cc1OC` (stereo unspecified) [Alfuzosin], the LC retention time amounted to 4.29 min.

Regarding `NC(=O)NC(NC(N)=O)C(=O)O` [Allantoic acid], the LC retention time worked out at 8.56 min.

As to `Cc1[nH]cnc1CN1CCc2c(c3ccccc3n2C)C1=O` [Alosetron], the LC retention time is 4.19 min.

For `Cc1nnc2n1-c1ccc(Cl)cc1C(c1ccccc1)=NC2` [Alprazolam], the LC retention time worked out at 1.34 min.

As for `O=C(c1ccc(F)cc1)C1CCN(CCn2c(=S)[nH]c3ccccc3c2=O)CC1` [Altanserin], the LC retention time came out at 2.64 min.

As to `NC12CC3CC(CC(C3)C1)C2` [Amantadine], the LC retention time was 4.88 min.

On to `NC(N)=NC(=O)c1nc(Cl)c(N)nc1N` [Amiloride], for which the LC retention time amounted to 5.52 min.

Consider `CCCCc1oc2ccccc2c1C(=O)c1cc(I)c(OCCN(CC)CC)c(I)c1` [Amiodarone], for which the LC retention time was determined as 1.87 min.

Turning to `CCN1CCCC1CNC(=O)c1cc(S(=O)(=O)CC)c(N)cc1OC` (stereo unspecified) [Amisulpride], the LC retention time came out at 2.76 min.

Turning to `CC(C)c1ccc2oc3nc(N)c(C(=O)O)cc3c(=O)c2c1` [Amlexanox], the LC retention time stood at 1.81 min.

As to `CCOC(=O)C1=C(COCCN)NC(C)=C(C(=O)OC)C1c1ccccc1Cl` (stereo unspecified) [Amlodipine], the LC retention time worked out at 4.24 min.

`CC(N)Cc1ccccc1` (stereo unspecified) [Amphetamine]: the LC retention time was 4.6 min.

With `CCOC(=O)OC(C)OC1=C(C(=O)Nc2ccccn2)N(C)S(=O)(=O)c2ccccc21` (stereo unspecified) [Ampiroxicam], the LC retention time worked out at 0.95 min.

In the case of `O=C1CN2Cc3c(ccc(Cl)c3Cl)N=C2N1` [Anagrelide], the LC retention time stood at 1.82 min.

Consider `CC(C)(C#N)c1cc(Cn2cncn2)cc(C(C)(C)C#N)c1` [Anastrozole], for which the LC retention time was 0.98 min.

Consider `CC12CCC3C(CCC4CC(O)CCC43C)C1CCC2O` (stereo unspecified) [Androstane-3,17-diol], for which the LC retention time came to 0.96 min.

Take `CC12CCC3C(CCC4=CC(=O)CCC43C)C1CCC2=O` (stereo unspecified) [Androstenedione]: the LC retention time was found to be 1.09 min.

In the case of `CC12CCC3C(CCC4CC(O)CCC43C)C1CCC2=O` (stereo unspecified) [Androsterone], the LC retention time came to 4.62 min.

Take `Cn1cncc1CC(NC(=O)CCN)C(=O)O` (stereo unspecified) [Anserine]: the LC retention time was determined as 9.49 min.

In the case of `CCCCCC=CCC=CCC=CCC=CCCCC(=O)NCCc1ccc(O)c(O)c1` [Arachidonyl dopamine], the LC retention time amounted to 1.14 min.

For `CC(NC(=O)C(N)CCCN=C(N)N)C(=O)O` (stereo unspecified) [Arg-Ala], the LC retention time is 9.66 min.

Consider `NC(N)=NCCCC(N)C(=O)NCC(=O)O` (stereo unspecified) [Arg-Gly], for which the LC retention time turned out to be 9.85 min.

Take `NC(N)=NCCCC(N)C(=O)N1CCCC1C(=O)O` (stereo unspecified) [Arg-Pro]: the LC retention time is 9.51 min.

On to `NC(N)=NCCCC(N)C(=O)NC(CO)C(=O)O` (stereo unspecified) [Arg-Ser], for which the LC retention time was determined as 9.9 min.

As to `CC(C)C(NC(=O)C(N)CCCN=C(N)N)C(=O)O` (stereo unspecified) [Arg-Val], the LC retention time was determined as 9.3 min.

Consider `CC1CNc2c(cccc2S(=O)(=O)NC(CCCN=C(N)N)C(=O)N2CCC(C)CC2C(=O)O)C1` (stereo unspecified) [Argatroban], for which the LC retention time was determined as 5.45 min.

As for `NC(N)=NCCCC(N)C(=O)O` (stereo unspecified) [Arginine], the LC retention time stood at 9.53 min.

Turning to `O=C1CCc2ccc(OCCCCN3CCN(c4cccc(Cl)c4Cl)CC3)cc2N1` [Aripiprazole], the LC retention time was found to be 3.14 min.

Take `O=C1OC(C(O)CO)C(O)=C1O` (stereo unspecified) [Ascorbic acid]: the LC retention time stood at 1.44 min.

For `NC(CC(=O)O)C(=O)NC(CCC(=O)O)C(=O)O` (stereo unspecified) [Asp-Glu], the LC retention time worked out at 9.47 min.

For the compound `NC(CC(=O)O)C(=O)NC(Cc1ccccc1)C(=O)O` (stereo unspecified) [Asp-Phe], the LC retention time amounted to 8.14 min.

Regarding `NC(=O)CC(N)C(=O)O` (stereo unspecified) [Asparagine], the LC retention time came to 8.81 min.

On to `NC(CC(=O)O)C(=O)O` (stereo unspecified) [Aspartic acid], for which the LC retention time is 9.33 min.

On to `CNCCC(Oc1ccccc1C)c1ccccc1` (stereo unspecified) [Atomoxetine], for which the LC retention time worked out at 2.42 min.

In the case of `CN1C2CCC1CC(OC(=O)C(CO)c1ccccc1)C2` (stereo unspecified) [Atropine], the LC retention time is 4.32 min.

Regarding `CN1C(=O)COc2c(C(=O)NC3CN4CCC3CC4)cc(Cl)cc21` (stereo unspecified) [Azasetron], the LC retention time was 4.66 min.

On to `CN1CCCC(n2nc(Cc3ccc(Cl)cc3)c3ccccc3c2=O)CC1` (stereo unspecified) [Azelastine], for which the LC retention time stood at 2.95 min.

As to `O=C(O)CCNC(=O)c1ccc(N=Nc2ccc(O)c(C(=O)O)c2)cc1` [Balsalazide], the LC retention time is 4.85 min.

With `CC1CC2C3CCC4=CC(=O)C=CC4(C)C3(Cl)C(O)CC2(C)C1(O)C(=O)CO` (stereo unspecified) [Beclomethasone], the LC retention time is 1.26 min.
